Assay results as given in patent US20230263822A1, “MODULATION OF FACTOR 11 EXPRESSION” (Ionis Pharmaceuticals, Inc., priority 2008, published 2023).
Strand notation (5' to 3'): a small letter for the sugar, then the base; units joined by * are phosphorothioate-linked, units joined directly phosphodiester-linked; [ ] holds rarer units or linkages, { } end groups; capitals alone tell only the bases. e = 2'-O-(2-methoxyethyl) (MOE); [5mC] = 5-methylcytosine; d = 2'-deoxy (DNA)

Experiments:
mouse Factor 11 mRNA [1] = test: Cross-reactive antisense inhibition of murine Factor 11 in primary mouse hepatocytes, 100 nM (Example 9); type: cell-based; details: ~24 hours
Method: Antisense oligonucleotides targeted to a murine factor 11 nucleic acid were tested for their effects on Factor 11 mRNA in vitro. Cultured primary mouse hepatocytes at a density of 10,000 cells per well were treated with 100 nM antisense oligonucleotide. After a treatment period of approximately 24 hours, RNA was isolated from the cells and mouse Factor 11 mRNA levels were measured by quantitative real-time PCR. Factor 11 mRNA levels were adjusted according to total RNA content, as measured by RIBOGREEN. Results are presented as percent inhibition of Factor 11, relative to untreated control cells.
The chimeric antisense oligonucleotides in Tables 16 were designed as 5-10-5 MOE gapmers. The gapmers are 20 nucleotides in length, wherein the central gap segment is comprised of 10 2′-deoxynucleotides and is flanked on both sides (in the 5′ and 3′ directions) by wings comprising 5 nucleotides each. Each nucleotide in the 5′ wing segment and each nucleotide in the 3′ wing segment has a 2′-MOE modification. The internucleoside linkages throughout each gapmer are phosphorothioate (P=S) linkages. All cytidine residues throughout each gapmer are 5-methylcytidines. “Mouse target start site” indicates the 5′-most nucleotide to which the gapmer is targeted. “Mouse target stop site” indicates the 3′-most nucleotide to which the gapmer is targeted. All the mouse oligonucleotides listed show cross-reactivity between the mouse Factor 11 mRNA (GENBANK Accession No. NM_028066.1), incorporated herein as SEQ ID NO: 6 and the human Factor 11 mRNA (GENBANK Accession No. NM_000128.3), incorporated herein as SEQ ID NO: 1. “Human Target Start Site” indicates the 5′-most nucleotide in the human mRNA (GENBANK Accession No. NM_000128.3) to which the antisense oligonucleotide is targeted. “Human Target Stop Site” indicates the 3′-most nucleotide in the human mRNA (GENBANK Accession No. NM_000128.3) to which the antisense oligonucleotide is targeted. “Number of mismatches” indicates the mismatches between the mouse oligonucleotide and the human mRNA sequence.

blood coagulation = test: PT and aPTT assay in platelet poor plasma (Example 10); type: in vivo; details: BALB/c mice
Method: BALB/c mice were injected with 5 mg/kg, 10 mg/kg, 25 mg/kg, or 50 mg/kg of ISIS 404057 or ISIS 404071 twice a week for 3 weeks. A control group of mice was injected with phosphate buffered saline (PBS) twice a week for 3 weeks. Mice were sacrificed 5 days after receiving the last dose. Whole liver was harvested for RNA analysis and plasma was collected for clotting analysis (PT and aPTT) and protein analysis.
Prothrombin Time (PT) and Activated Partial Thromboplastin Time (aPTT) were measured using platelet poor plasma (PPP) from mice treated with ISIS 404057 and ISIS 404071. PT and aPTT values provided in Table 18 are reported as International Normalized Ratio (INR) values. INR values for PT and aPTT were determined by dividing the PT or aPTT value for each experimental group (i.e. 5 mg/kg, 10 mg/kg, 25 mg/kg, and 50 mg/kg treatment with ISIS 404057 or ISIS 404071) by the PT or aPTT for the PBS treated group. This ratio was then raised to the power of the International Sensitivity Index (ISI) of the tissue factor used.

mouse Factor 11 mRNA [2] = test: Sense-oligonucleotide antidote: Factor 11 mRNA in liver (Example 23); type: in vivo, BALB/c mice
Method: The effect of the specific sense oligonucleotide to ISIS 404071 as an antidote was tested in BALB/c mice. In a first cohort, ISIS 404071 was administered subcutaneously to BALB/c mice twice a week for three weeks at a dose of 40 mg/kg. In a second cohort, ISIS 404057 was administered subcutaneously to BALB/c mice twice a week for three weeks at a dose of 40 mg/kg. The ISIS 404071 specific antidote, ISIS 418026 ([…]; complementary to ISIS 404071), incorporated herein as SEQ ID NO: 13, was administered to both cohorts subcutaneously in a single injection of 90 mg/kg 48 hours after the final treatment of ISIS 404071 or 404057. In a third cohort, ISIS 404071 was administered subcutaneously to BALB/c mice twice a week for three weeks at a dose of 40 mg/kg. Following the last treatment of ISIS 404071, mice were injected subcutaneously injected with PBS. In a fourth cohort, ISIS 404057 was administered subcutaneously to BALB/c mice twice a week for three weeks at a dose of 40 mg/kg. Following the last treatment of ISIS 404057, mice were injected subcutaneously injected with PBS. Following antidote administration, a set of 4 mice from each cohort were sacrificed at 12 hours, 1 day, 2 days, 3 days, 7 days, and 14 days. Whole liver was collected for RNA analysis and PPP was collected for aPTT analysis.
RNA was extracted from liver tissue for real-time PCR analysis of Factor 11. Results are presented as percent inhibition of Factor 11, relative to PBS control.

[3] = rat, in vivo, sc, 50 mg/kg
Method: A control group of four Sprague Dawley rats was injected subcutaneously with PBS twice per week for 6 weeks. Body weight measurements were taken before and throughout the treatment period. Urine samples were taken before the start of treatment. Three days after the last dose, urine samples were taken and the rats were sacrificed. Organ weights were measured and blood was collected for further analysis.
To evaluate the effect of kidney function, plasma concentrations of blood urea nitrogen (BUN) and creatinine were measured using an automated clinical chemistry analyzer (Hitachi Olympus AU400e, Melville, N.Y.).

[4] = rat, in vivo, sc, 50 mg/kg; remark: listed apart in the source
[5] = rat, in vivo, sc, 50 mg/kg; remark: listed apart in the source
[6] = Collagenase-induced intracerebral hemorrhage model: hemorrhage volume, neurologic deficit score, mortality (Example 25); type: in vivo, BALB/c mice
Method: In a first cohort, ISIS 404071 was administered subcutaneously to BALB/c mice twice a week for two weeks at a dose 40 mg/kg. […] In a third cohort, ISIS 421208 ([…], 8 mismatches to murine Factor 11, incorporated herein as SEQ ID NO: 14) was administered subcutaneously to BALB/c mice twice a week for two weeks at a dose 40 mg/kg. In a fourth cohort, PBS was administered to BALB/c mice twice a week for two weeks.
Two days after receiving their final dose, all mice in all cohorts were anesthetized with […] of avertin. Next, the mice were injected at −1 mm AP, 1 mm R ML, −4 mm DV from bregma flat skull with a 10 μL Hamilton syringe containing 0.075 U collagenase (150 U/mL). Collagenase was delivered over 5 minutes and the needle was kept in place for an additional 5 minutes to prevent reflux. The mice were then analyzed for hemorrhagic size, neurologic deficit score, and mortality.
Table 37 presents the hemorrhage volume detected in mice after collagenase treatment, Table 38 presents the neurologic deficit score of the mice, and Table 39 presents the mortality rate of the mice. Neurological deficit is measured by a standard scoring system where no deficiency is zero and severe deficit is five.

[7] = 5 mg/kg twice a week for 3 weeks
[8] = 10 mg/kg twice a week for 3 weeks
[9] = 25 mg/kg twice a week for 3 weeks
[10] = 50 mg/kg twice a week for 3 weeks
[11] = 5-50 mg/kg twice a week for 3 weeks

Row | Substance | % Inhibition of mouse Factor 11 mRNA levels (mouse Factor 11 mRNA [1]) [%] | BUN [3] [mg/dL] | Creatinine [3] [mg/dL] | HCT [4] [%] | MCH [4] | MCHC [4] [%] | MCV [4] | Platelets [4] | RBC [4] | WBC [4] [nL⁻¹] | hemoglobin [4] [g/dL] | lymphocytes [4] [%] | monocytes [4] [%] | neutrophils [4] [%] | ALT [5] [IU/L] | AST [5] [IU/L] | Albumin [5] | Bilirubin [5] [mg/dL] | other results
1 | 404050 (eT*eG*e[5mC]*eT*eT*dG*dA*dA*dG*dG*dA*dA*dT*dA*dT*e[5mC]*e[5mC]*eA*eG*eA; antisense) [compound 404050] | 82 |  |  |  |  |  |  |  |  |  |  |  |  |  |  |  |  |  | 
2 | 404054 (eT*eA*eG*eT*eT*d[5mC]*dA*dT*dG*d[5mC]*d[5mC]*d[5mC]*dT*dT*d[5mC]*eA*eT*eG*eT*e[5mC]; antisense) [compound 404054] | 45 |  |  |  |  |  |  |  |  |  |  |  |  |  |  |  |  |  | 
3 | 404055 (eT*eG*eT*eT*eA*dT*dA*dG*dT*dT*d[5mC]*dA*dT*dG*d[5mC]*e[5mC]*e[5mC]*eT*eT*e[5mC]; antisense) [compound 404055] | 27 |  |  |  |  |  |  |  |  |  |  |  |  |  |  |  |  |  | 
4 | 404066 (eA*eA*eT*eG*eT*d[5mC]*d[5mC]*d[5mC]*dT*dG*dA*dT*dA*d[5mC]*dA*eA*eG*e[5mC]*e[5mC]*eA; antisense) [compound 404066] | 37 |  |  |  |  |  |  |  |  |  |  |  |  |  |  |  |  |  | 
5 | 404067 (antisense eG*eG*eG*eA*eA*dA*dA*dT*dG*dT*d[5mC]*d[5mC]*d[5mC]*dT*dG*eA*eT*eA*e[5mC]*eA) [compound 404067] | 39 |  |  |  |  |  |  |  |  |  |  |  |  |  |  |  |  |  | 
6 | ISIS 404057: antisense oligonucleotide targeted to murine Factor 11 mRNA, TCCTGGCATTCTCGAGCATT, target start site 487 (antisense eT*e[5mC]*e[5mC]*eT*eG*dG*d[5mC]*dA*dT*dT*d[5mC]*dT*d[5mC]*dG*dA*eG*e[5mC]*eA*eT*eT) |  |  |  |  |  |  |  |  |  |  |  |  |  |  |  |  |  |  | PT INR (blood coagulation; [7]): 1.00; aPTT INR (blood coagulation; [7]): 1.07; PT INR (blood coagulation; [8]): 0.94; aPTT INR (blood coagulation; [8]): 1.19; PT INR (blood coagulation; [9]): 1.02; aPTT INR (blood coagulation; [9]): 1.27; PT INR (blood coagulation; [10]): 1.00; aPTT INR (blood coagulation; [10]): 1.37; PT (blood coagulation; [11]): not significantly prolonged; aPTT (blood coagulation; [11]): prolonged in a dose-dependent manner; Percent inhibition of mouse Factor 11 mRNA compared to PBS control (mouse Factor 11 mRNA [2]; 3 days after antidote/PBS, antisense 40 mg/kg s.c. twice a week for three weeks, ISIS 418026 90 mg/kg single injection where given): 95%
7 | ISIS 416892: 3-14-3 MOE gapmer GCCCTTCATGTCTAGGTCCA (sugars from the 5' end e3 d14 e3, backbone and methylation of C not given here) |  | 188 | 1 | 13 | 2 | 0 | 1 | 66 10^3/μL | 12 | 68 | 14 | 18 | 58 | 92 | 113 | 183 | 8 | 1 | 
8 | ISIS 416925: MOE gapmer, nucleobases 1275 to 1318 of SEQ ID NO: 1 (Table 8) (antisense GGTGCACAGTTTCTGGCAGG; MOE gapmer, wing and gap sizes not given here) |  | 7 | 5 | 8 | 2 | 4 | 5 | 8 10^3/μL | 6 | 24 | 6 | 4 | 23 | 20 | 102 | 20 | 5 | 13 | 
9 | ISIS 416999: MOE gapmer, nucleobases 1275 to 1318 of SEQ ID NO: 1 (Table 8) (antisense GCACAGTTTCTGGCAGGCCT; MOE gapmer, wing and gap sizes not given here) |  | 2 | 4 | 5 | 3 | 1 | 2 | 12 10^3/μL | 5 | 12 | 6 | 3 | 20 | 23 | 92 | 28 | 5 | 54 | 
10 | ISIS 417003: MOE gapmer, nucleobases 1275 to 1318 of SEQ ID NO: 1 (Table 8) (antisense TGGTGCACAGTTTCTGGCAG; MOE gapmer, wing and gap sizes not given here) |  | 9 | 9 | 8 | 4 | 4 | 6 | 19 10^3/μL | 11 | 83 | 11 | 3 | 6 | 17 | 138 | 23 | 6 | 50 | 
11 | ISIS 418026: ISIS 404071 specific antidote, CCTCTGAAAGTGGATTACCA; complementary to ISIS 404071 (listed as DNA, chemistry not given here) |  |  |  |  |  |  |  |  |  |  |  |  |  |  |  |  |  |  | inhibition of Factor 11 mRNA expression in ISIS 404057 treated mice (mouse Factor 11 mRNA [2]; BALB/c mice, ISIS 404057 40 mg/kg then ISIS 418026 90 mg/kg): had no effect on inhibition of Factor 11 mRNA expression
12 | ISIS 421208: TCGGAAGCGACTCTTATATG, 8 mismatches to murine Factor 11 (listed as DNA, chemistry not given here) [reference compound] |  |  |  |  |  |  |  |  |  |  |  |  |  |  |  |  |  |  | Hemorrhagic volume after collagenase treatment ([6]; 40 mg/kg s.c. twice a week for two weeks): 41 mm^3; Neurologic Deficit Score after collagenase treatment ([6]; 40 mg/kg s.c. twice a week for two weeks, score zero (no deficiency) to five (severe deficit)): 2.0; % mortality after collagenase treatment ([6]; ISIS oligonucleotides 40 mg/kg s.c., warfarin 2 mg/kg intraperitoneally, twice a week for two weeks): 0%
